Experimental data published in ChEMBL document CHEMBL3856189, “Synthesis of novel diterpenoid analogs with in-vivo antitumor activity” (Eur J Med Chem, 2016).

Tests used:
[1] = test system: T47D; test: Selectivity index, ratio of IC50 for HAF cells to IC50 for human T47D cells; type: functional
[2] = test system: MCF7; test: Selectivity index, ratio of IC50 for HAF cells to IC50 for human MCF7 cells; type: functional
[3] = Antiproliferative activity against human HT-29 cells after 96 hrs by SRB assay; type: functional, cell-based; conditions: HT-29, 96 h
[4] = test system: PC-3; test: Selectivity index, ratio of IC50 for HAF cells to IC50 for human PC3 cells; type: functional
[5] = test system: HL-60; test: Selectivity index, ratio of IC50 for HAF cells to IC50 for human HL60 cells; type: functional
[6] = Antiproliferative activity against HAF cells after 96 hrs by SRB assay; type: cell-based; conditions: Homo sapiens
[7] = Antiproliferative activity against human DU145 cells after 96 hrs by SRB assay; type: functional, cell-based; conditions: DU-145, 96 h
[8] = Selectivity index, ratio of IC50 for HAF cells to IC50 for human MDA-MB-231 cells; type: functional
[9] = test system: HCT-116; test: Selectivity index, ratio of IC50 for HAF cells to IC50 for human HCT116 cells; type: functional
[10] = test system: DU-145; test: Selectivity index, ratio of IC50 for HAF cells to IC50 for human DU145 cells; type: functional
[11] = Antiproliferative activity against human HCT116 cells after 96 hrs by SRB assay; type: functional, cell-based; conditions: HCT-116, 96 h
[12] = Antiproliferative activity against human HL60 cells after 96 hrs by SRB assay; type: functional, cell-based; conditions: HL-60, 96 h
[13] = Antiproliferative activity against human MCF7 cells after 96 hrs by SRB assay; type: functional, cell-based; conditions: MCF7, 96 h
[14] = Selectivity index, ratio of IC50 for HAF cells to IC50 for human HT-29 cells; type: functional
[15] = Antiproliferative activity against human MDA-MB-231 cells after 96 hrs by SRB assay; type: functional, cell-based; conditions: MDA-MB-231, 96 h
[16] = Antiproliferative activity against human T47D cells after 96 hrs by SRB assay; type: functional, cell-based
[17] = Antiproliferative activity against human PC3 cells after 96 hrs by SRB assay; type: functional, cell-based; conditions: PC-3, 96 h
[18] = test system: T47D; test: Induction of apoptosis in human T47D cells assessed as early apoptotic cells at 20 uM after 48 hrs by Annexin V-FITC/propidium iodide staining based flow cytometry (reference value: 3.79 %); type: functional
[19] = test system: T47D; test: (§1) Antimigratory activity in human T47D cells assessed as inhibition of cell migration after 12 hrs by crystal violet staining based transwell migration assay; type: functional
[20] = as §1; type: functional
[21] = test system: T47D; test: (§2) Inhibition of colony formation in human T47D cells after 7 days by crystal violet staining based assay; type: functional, cell-based
[22] = as §2; type: functional, cell-based; conditions: 168 h
[23] = test system: T47D; test: Induction of apoptosis in human T47D cells assessed as late apoptotic cells at 40 uM after 48 hrs by Annexin V-FITC/propidium iodide staining based flow cytometry (reference value: 3.04 %); type: functional
[24] = test system: T47D; test: Induction of apoptosis in human T47D cells assessed as late apoptotic cells at 20 uM after 48 hrs by Annexin V-FITC/propidium iodide staining based flow cytometry (reference value: 3.04 %); type: functional
[25] = test system: T47D; test: Induction of apoptosis in human T47D cells assessed as early apoptotic cells at 40 uM after 48 hrs by Annexin V-FITC/propidium iodide staining based flow cytometry (reference value: 3.79 %); type: functional
[26] = test system: T47D; test: Induction of apoptosis in human T47D cells assessed as late apoptotic cells at 80 uM after 48 hrs by Annexin V-FITC/propidium iodide staining based flow cytometry (reference value: 3.04 %); type: functional
[27] = test system: T47D; test: Induction of apoptosis in human T47D cells assessed as early apoptotic cells at 80 uM after 48 hrs by Annexin V-FITC/propidium iodide staining based flow cytometry (reference value: 3.79 %); type: functional
[28] = test system: T47D; test: Induction of apoptosis in human T47D cells assessed as early apoptotic cells at 5 uM after 48 hrs by Annexin V-FITC/propidium iodide staining based flow cytometry (reference value: 1.75 %); type: functional
[29] = test system: T47D; test: Induction of apoptosis in human T47D cells assessed as early apoptotic cells at 10 uM after 48 hrs by Annexin V-FITC/propidium iodide staining based flow cytometry (reference value: 1.75 %); type: functional
[30] = test system: Mus musculus; test: Toxicity in nude mouse xenografted with human T47D cells assessed as body weight loss at 5 mg/kg/day, ip administered daily for 18 days measured every 3 days during compound dosing; type: organism-based; conditions: in vivo
[31] = Antitumor activity against human T47D cells xenografted in nude mouse assessed as tumor volume at 5 mg/kg/day, ip administered daily for 18 days measured every 3 days during compound dosing (reference value: 1220 +/- 127 mm3); type: functional
[32] = test system: T47D; test: Induction of apoptosis in human T47D cells assessed as late apoptotic cells at 5 uM after 48 hrs by Annexin V-FITC/propidium iodide staining based flow cytometry (reference value: 2.42 %); type: functional
[33] = test system: Mus musculus; test: Acute toxicity in nude mouse xenografted with human T47D cells assessed as mortality at 5 to 40 mg/kg/day, ip administered daily for 18 days measured on day 18 post last dose; type: organism-based; conditions: in vivo, 432 h
[34] = test system: Mus musculus; test: Toxicity in nude mouse xenografted with human T47D cells assessed as diarrhoea at 5 mg/kg/day, ip administered daily for 18 days; type: organism-based; conditions: in vivo, 432 h
[35] = test system: T47D; test: Induction of apoptosis in human T47D cells assessed as early apoptotic cells at 20 uM after 48 hrs by Annexin V-FITC/propidium iodide staining based flow cytometry (reference value: 1.75 %); type: functional
[36] = test system: T47D; test: Induction of apoptosis in human T47D cells assessed as late apoptotic cells at 20 uM after 48 hrs by Annexin V-FITC/propidium iodide staining based flow cytometry (reference value: 2.42 %); type: functional
[37] = test system: Mus musculus; test: Toxicity in nude mouse xenografted with human T47D cells assessed as organ damage at 5 mg/kg/day, ip administered daily for 18 days; type: organism-based; conditions: in vivo, 432 h
[38] = test system: T47D; test: Induction of apoptosis in human T47D cells assessed as late apoptotic cells at 10 uM after 48 hrs by Annexin V-FITC/propidium iodide staining based flow cytometry (reference value: 2.42 %); type: functional
[39] = Antitumor activity against human T47D cells xenografted in nude mouse assessed as tumor weight at 5 mg/kg/day, ip administered daily for 18 days measured every 3 days during compound dosing (reference value: 882 +/- 149 mg); type: functional

## COc1ccc(NC(=O)c2cc3c(cc2OC)[C@@]2(C)CC[C@H](O)C(C)(C)[C@@H]2CC3)cc1
[1]
  Ratio IC50: 10
[2]
  Ratio IC50: 10
[3]
  IC50: 0.52 µM
[4]
  Ratio IC50: 10
[5]
  Ratio IC50: 10
[6]
  IC50: 4.01 µM
[7]
  IC50: 0.54 µM
[8]
  Ratio IC50: 10
[9]
  Ratio IC50: 10
[10]
  Ratio IC50: 10
[11]
  IC50: 0.51 µM
[12]
  IC50: 0.41 µM
[13]
  IC50: 0.28 µM
[14]
  Ratio IC50: 10
[15]
  IC50: 0.41 µM
[16]
  IC50: 0.03 µM
[17]
  IC50: 0.5 µM

## COc1cc2c(cc1C(=O)Nc1ccc(F)cc1)CC[C@H]1C(C)(C)[C@@H](O)CC[C@]21C
[13]
  IC50: 0.82 µM
[15]
  IC50: 2.4 µM
[16]
  IC50: 0.04 µM

## COc1cc2c(cc1C(=O)N(C)c1ccc(F)cc1)CC[C@H]1C(C)(C)[C@@H](O)CC[C@]21C
[13]
  IC50: > 25 µM
[15]
  IC50: > 25 µM
[16]
  IC50: > 25 µM

## COc1cc2c(cc1C(=O)Nc1ccc(O)cc1)CC[C@H]1C(C)(C)[C@@H](O)CC[C@]21C
[13]
  IC50: 3.07 µM
[15]
  IC50: 1.9 µM
[16]
  IC50: 0.07 µM

## COc1cc2c(cc1C(=O)N(C)C)CC[C@H]1C(C)(C)[C@@H](O)CC[C@]21C
[13]
  IC50: > 25 µM
[15]
  IC50: > 25 µM
[16]
  IC50: > 25 µM

## COc1cc2c(cc1C(=O)Nc1ccccc1F)CC[C@H]1C(C)(C)[C@@H](O)CC[C@]21C
[13]
  IC50: > 25 µM
[15]
  IC50: > 25 µM
[16]
  IC50: > 25 µM

## COc1cc2c(cc1C(=O)Nc1ccccc1)CC[C@H]1C(C)(C)[C@@H](O)CC[C@]21C
[1]
  Ratio IC50: 1.9
[2]
  Ratio IC50: 1.9
[3]
  IC50: 2.45 µM
[4]
  Ratio IC50: 1.9
[5]
  Ratio IC50: 1.9
[6]
  IC50: 9.46 µM
[18]
  Activity: 2.25%
[19]
  Activity: Dose-dependent effect
[20]
  EC50: 37.7 µM
[7]
  IC50: 10.7 µM
[8]
  Ratio IC50: 1.9
[9]
  Ratio IC50: 1.9
[10]
  Ratio IC50: 1.9
[21]
  Activity: Dose-dependent effect
[22]
  EC50: 0.987 µM
[23]
  Activity: 6.97%
[11]
  IC50: 1.54 µM
[24]
  Activity: 3.54%
[12]
  IC50: 12.4 µM
[13]
  IC50: 4.8 µM
[25]
  Activity: 3.33%
[14]
  Ratio IC50: 1.9
[15]
  IC50: 4.49 µM
[26]
  Activity: 7.72%
[16]
  IC50: 0.84 µM
[17]
  IC50: 2.51 µM
[27]
  Activity: 4.7%

## COC(=O)c1ccc(NC(=O)c2cc3c(cc2OC)[C@@]2(C)CC[C@H](O)C(C)(C)[C@@H]2CC3)cc1
[13]
  IC50: 4.61 µM
[15]
  IC50: 6.81 µM
[16]
  IC50: 2.7 µM

## COc1cc2c(cc1C(=O)O)CC[C@H]1C(C)(C)C(O)CC[C@]21C (single isomer, unassigned)
[13]
  IC50: > 25 µM
[15]
  IC50: > 25 µM
[16]
  IC50: > 25 µM

## COc1cc([C@@H]2c3cc4c(cc3[C@H](O)[C@H]3COC(=O)[C@H]23)OCO4)cc(OC)c1OC [PODOFILOX]
[1]
  Ratio IC50: 0.8
[2]
  Ratio IC50: 0.8
[3]
  IC50: 0.02 µM
[4]
  Ratio IC50: 0.8
[5]
  Ratio IC50: 0.8
[6]
  IC50: 0.09 µM
[28]
  Activity: 4.97%
[29]
  Activity: 7.47%
[19]
  Activity: Dose-dependent effect
[20]
  EC50: 8.98 µM
[7]
  IC50: 0.01 µM
[30]
  Activity: Toxic
[8]
  Ratio IC50: 0.8
[9]
  Ratio IC50: 0.8
[31]
  Activity: 407 mm3
[32]
  Activity: 4.45%
[10]
  Ratio IC50: 0.8
[21]
  Activity: Dose-dependent effect
[22]
  EC50: 0.00297 µM
[33]
  Activity: Toxic
[34]
  Activity: Toxic
[35]
  Activity: 11.86%
[11]
  IC50: 0.02 µM
[36]
  Activity: 7.21%
[12]
  IC50: 0.48 µM
[13]
  IC50: 0.01 µM
[37]
  Activity: Toxic
[14]
  Ratio IC50: 0.8
[15]
  IC50: 0.12 µM
[16]
  IC50: 0.25 µM
[17]
  IC50: 0.05 µM
[38]
  Activity: 6.98%
[39]
  Activity: 200 mg

## COc1ccc(N(C)C(=O)c2cc3c(cc2OC)[C@@]2(C)CC[C@H](O)C(C)(C)[C@@H]2CC3)cc1
[13]
  IC50: > 25 µM
[15]
  IC50: > 25 µM
[16]
  IC50: 12.7 µM

## CC1(C)[C@@H](O)CC[C@]2(C)c3cc(O)c(C(=O)Nc4ccc(F)cc4)cc3CC[C@@H]12
[13]
  IC50: 6.05 µM
[15]
  IC50: 9.25 µM
[16]
  IC50: 2.55 µM
